Source: patent US20240287533A1, “GLUTEN MODIFICATION” (The Regents of the University of California, priority 2021, published 2024)
Entries after “also recorded” stand apart in the source; their conditions may differ.

Legend:
human monocytes (THP-1) = experiment: IL-8 production by THP-1 monocytes (ELISA); format: cell-based; conditions: 18 hours; for IL-8 production compared to the dsDNA-gld-1 complex: peptide in the presence of dsDNA; for IL-8 secretion: dsDNA+peptide, compared to media control, dsDNA alone or peptide alone
Procedure: (§1) In order to test the biological impact of gluten peptide fragment/dsDNA complexes, human monocytes (THP-1) and human colorectal adenocarcinoma cells (HT-29) were treated with medium as a control, dsDNA alone, gld-1 alone, or dsDNA+gld-1 for 18 hours, then production and secretion of interleukin-8 (IL-8) were assessed by ELISA.

Escherichia coli dsDNA = experiment: Small Angle X-ray Scattering (SAXS) of peptide-dsDNA complexes; format: binding; conditions: peptide incubated with genomic E. coli dsDNA
Procedure: The peaks correspond to a rhombic columnar lattice with inter dsDNA spacing, d=4.0 nm, and tilt angle, γ=104.6°. To facilitate visualization, spectra were manually offset vertically by a multiplicative factor.
Double stranded DNA (dsDNA) is an example of a PAMP that is readily available in the gastrointestinal tract (e.g., from food or the gut microbiome). To assess the ability of gluten derived peptide gld-1 to bind dsDNA, Escherichia coli dsDNA was incubated with gld-1, and the formation of an ordered dsDNA-gld-1 complex was assessed.
Small Angle X-ray Scattering (SAXS) measurements of the complex produced Bragg reflections at q10=1.61 and q11=2.55 nm^−1.
Genomic E. coli dsDNA was incubated with gld-2 and gld-3 to test the formation of an ordered dsDNA-peptide complex.

[1] = test system: human colorectal adenocarcinoma cells (HT-29); experiment: IL-8 production by HT-29 cells (ELISA); format: cell-based; conditions: dsDNA+peptide, 18 hours, compared to dsDNA or peptide alone or media control
Procedure: as §1

human wild-type TLR9 = molecular target: T1, human wild-type TLR9 (Homo sapiens, UniProt Q9NR96); experiment: NF-κB/IL-8 luciferase reporter in HEK293 cells transfected with TLR9 plasmid; format: cell-based; conditions: 4 hours
T1 construct: expressed in transfected cells
T1 sequence (Q9NR96 26-1032): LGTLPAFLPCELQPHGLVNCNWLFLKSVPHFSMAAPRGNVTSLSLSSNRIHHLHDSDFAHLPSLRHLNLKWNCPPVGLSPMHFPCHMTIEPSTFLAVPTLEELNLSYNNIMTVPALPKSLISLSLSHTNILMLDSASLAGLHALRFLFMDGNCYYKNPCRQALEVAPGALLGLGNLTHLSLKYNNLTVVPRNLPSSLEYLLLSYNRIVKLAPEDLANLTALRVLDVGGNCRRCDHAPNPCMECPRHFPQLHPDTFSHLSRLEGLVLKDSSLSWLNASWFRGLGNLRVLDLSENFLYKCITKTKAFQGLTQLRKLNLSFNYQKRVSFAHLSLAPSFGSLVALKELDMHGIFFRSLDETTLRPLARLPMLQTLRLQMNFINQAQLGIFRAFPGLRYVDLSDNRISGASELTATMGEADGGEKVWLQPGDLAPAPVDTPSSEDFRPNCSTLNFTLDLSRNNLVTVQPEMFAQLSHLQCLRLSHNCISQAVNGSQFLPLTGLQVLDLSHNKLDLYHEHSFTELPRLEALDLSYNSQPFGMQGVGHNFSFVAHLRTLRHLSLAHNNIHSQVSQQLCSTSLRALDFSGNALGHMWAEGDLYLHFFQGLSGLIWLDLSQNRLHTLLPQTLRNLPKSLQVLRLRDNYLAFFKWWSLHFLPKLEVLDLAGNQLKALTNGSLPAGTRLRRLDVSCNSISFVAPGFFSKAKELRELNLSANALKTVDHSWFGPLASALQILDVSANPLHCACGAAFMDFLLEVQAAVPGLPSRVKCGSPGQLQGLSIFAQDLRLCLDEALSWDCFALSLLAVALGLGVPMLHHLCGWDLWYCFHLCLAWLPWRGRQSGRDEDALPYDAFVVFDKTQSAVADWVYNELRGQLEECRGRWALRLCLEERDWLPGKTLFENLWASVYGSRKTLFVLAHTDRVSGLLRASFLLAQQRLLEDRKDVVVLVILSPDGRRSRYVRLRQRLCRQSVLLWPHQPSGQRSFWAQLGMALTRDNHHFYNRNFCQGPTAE
Procedure: TLR9, Toll-like Receptor 9.
(§2) After 48 hours of recovery, cells were then treated for 4 hours with medium as a control, dsDNA alone, gld-1 peptide alone, or dsDNA-gld-1 complex, and luciferase activity measured.

[2] = test system: HEK293 cells (which do not express TLR9); experiment: NF-κB/IL-8 luciferase reporter in HEK293 cells transfected with pcDNA3.1 vector control; format: cell-based, human; conditions: 4 hours
Procedure: as §2

wild-type macrophages = experiment: Cytokine gene expression (qPCR) in wild-type macrophages; format: cell-based, mouse; conditions: dsDNA-peptide complex, 20 hours
From the text: (§3) To further validate the role of the dsDNA-gld-1 complex in the innate immune activation of TLR9, TLR9 knock-out (TLR9KO) mouse macrophages were compared to wild-type controls. […] Such increased gene expression was attenuated in TLR9KO macrophages, which lack TLR9 (FIG. 6C).

[3] = test system: TLR9 knock-out (TLR9KO) mouse macrophages; experiment: Cytokine gene expression (qPCR) in TLR9 knockout macrophages; format: cell-based; conditions: dsDNA-peptide complex, 20 hours, TLR9KO versus wild-type
From the text: as §3

RAAQQLRDVSAKARSVAVSQVAR (listed as Triticum aestivum) [gld-4A, cysteine-to-alanine mutant of gld-4]
IL-8 production, gld-4A compared to gld-4 (human monocytes (THP-1); with dsDNA): No significant difference

LWQIPEQSQCQAIHNVVQA (listed as Triticum aestivum) [gld-3, double mutation of gld-1 replacing cationic amino acids with glutamine]
formation of an ordered nanocrystalline dsDNA-peptide complex (Bragg peaks) (Escherichia coli dsDNA): inability of these two peptides to form an ordered nanocrystalline columnar structure with dsDNA
IL-8 production compared to the dsDNA-gld-1 complex (human monocytes (THP-1)): attenuated production of IL-8

LWQIPEQSRCQAIHNVVHA (listed as Triticum aestivum) [gld-1]
formation of an ordered nanocrystalline dsDNA-peptide complex (Bragg peaks) (Escherichia coli dsDNA): form strongly immunomodulatory complexes with dsDNA; also recorded: able to organize dsDNA into a nano-crystalline lattice structure; also recorded: able to form a well-structured complex
IL-8 secretion (human monocytes (THP-1)): significant increase in IL-8 secretion
IL-8 secretion [1]: increased secretion of IL-8
NF-κB/IL-8 activation (luciferase) (human wild-type TLR9; dsDNA-peptide complex, compared to dsDNA alone): significantly higher activation
NF-κB/IL-8 activation (luciferase) (human wild-type TLR9; dsDNA-peptide complex, compared to the media control): significant increase
NF-κB/IL-8 activation (luciferase) (human wild-type TLR9; peptide alone, compared to the media control): did not significantly increase activation
NF-κB/IL-8 luciferase reporter signal ([2]; dsDNA-peptide complex): comparable NF-κB/IL-8 luciferase reporter signal to the media control
NF-κB/IL-8 luciferase reporter signal ([2]; peptide alone): comparable NF-κB/IL-8 luciferase reporter signal to the media control
interleukin-6 (IL-6) gene expression (wild-type macrophages): significant increase
keratinocyte-derived chemokine (KC) gene expression (wild-type macrophages): significant increase
IL-6 gene expression [3]: attenuated

RCCQQLRDVSAKCRSVAVSQVAR (listed as Triticum aestivum) [gld-4]
IL-8 secretion (human monocytes (THP-1)): stimulated IL-8 production
IL-8 production compared to the dsDNA-gld-1 complex (human monocytes (THP-1)): smaller than the dsDNA-gld-1 complex

LWQIPEQSQCQAIHNVVHA (listed as Triticum aestivum) [gld-2, single mutation of gld-1 replacing a cationic amino acid with glutamine]
formation of an ordered nanocrystalline dsDNA-peptide complex (Bragg peaks) (Escherichia coli dsDNA): inability of these two peptides to form an ordered nanocrystalline columnar structure with dsDNA
IL-8 production compared to the dsDNA-gld-1 complex (human monocytes (THP-1)): attenuated production of IL-8

LAAQLWQIPEQSRAQAIHNVVH (listed as Triticum aestivum) [gld-1A, variant of gld-1 in which all cysteines were replaced with alanines]
IL-8 production compared to the dsDNA-gld-1 complex (human monocytes (THP-1)): reduced the dsDNA-peptide complex activity
